Test results reported in a melting point compilation (Tetko et al.; mined from patent text by program, amines drawn as free bases though some values may be those of a salt).

Row | Structure (SMILES) | melting point
1 | Cc1ccc(-c2cc(F)c(F)cc2-c2ccc(S(C)(=O)=O)cc2)cc1Cl | 138 to 139 °C
2 | OCCOc1ccc(C2CCc3ccccc3O2)cc1 (stereo unspecified) | 84 to 85 °C
3 | CCc1cc(Cl)c(NC(C)=O)c(Cl)n1 | 142 °C
4 | CC(C)(C)c1c(=O)o[n-][n+]1CCSC12CC3CC(CC(C3)C1)C2 | 55 to 56 °C
5 | CCCOc1ccccc1-c1nc2nc(NCCCS(C)=O)ncc2c(=O)[nH]1 (stereo unspecified) | 188 to 189 °C
6 | CC(=O)OCCC(=C(c1ccccc1)c1ccccc1)c1ccccc1 | 81 to 83 °C
7 | CNc1nc(Br)cn2cc(C(N)=O)nc12 | 312 °C
8 | CC(C)c1c(Sc2cccc(Cl)c2)nc(COC(N)=O)n1C | 145 to 146 °C
9 | CC(=O)Nc1ccc(-n2nc(CCCCCC(=O)O)c3c2CCC3)cc1 | 149 to 150 °C
10 | COc1cccc(NC(=O)NCC(=O)N(CC(=O)OC(C)(C)C)c2ccccc2C(=O)c2ccccc2)c1 | 153 to 155 °C
11 | CCOc1nc2cccc(C(=O)OC)c2n1Cc1ccc(-c2ccccc2C(=O)OC)cc1 | 112 to 113 °C
12 | Cc1ccc(C(=O)C2Cc3ccccc3C2=O)cc1 (stereo unspecified) | 103 to 105 °C
13 | O=S(CCCCCl)Cc1ccc(Cl)c(Cl)c1 (stereo unspecified) | 155 to 158 °C
14 | COC(=O)c1cc(-c2ccccc2)c(=O)n2c1-c1sccc1CC2 | 116 °C
15 | Cc1sc(N2CCCCC2)nc1CCl | 79 to 80 °C
16 | O=C(CCc1nc(CCl)no1)c1ccc(-c2ccccc2)cc1 | 153 to 154 °C
17 | N[C@@H](Cc1cccc(OC(F)(F)C(F)F)c1)[C@H](O)c1ccc(F)nc1 (racemic) | 103 to 104 °C
18 | CCCCCC1OCc2cc(C#N)ccc2O1 (stereo unspecified) | 40.5 to 41 °C
19 | OC(CCl)(Cc1ccc(Cl)cc1)c1ccc2c(c1)Cc1cc(Cl)ccc1-2 (stereo unspecified) | 108 °C
20 | CCC(=O)Nc1cccc(O)c1 | 181 to 182 °C
21 | COC(=O)c1cncc(NC(=O)C(C)CSC(C)=O)c1 (stereo unspecified) | 88 to 90 °C
22 | C=CCON=C(CC)C1=C(O)CC(c2ccc(NS(C)(=O)=O)cc2)CC1=O (stereo unspecified) | 134 to 135 °C
23 | O=C1c2cccc(NCCO)c2OC12CC2 | 74 to 77 °C
24 | O=C(NCCc1c(Cl)cccc1Cl)c1c(Cl)ccc2nc(N3CCC(C(=O)O)CC3)ccc12 | 262 to 264 °C
25 | COC(=O)c1ccc(Oc2ccc(NC(=O)c3ccc([N+](=O)[O-])cc3Br)cc2NC(=O)c2ccc([N+](=O)[O-])cc2Br)cc1C(=O)OC | 138 to 142 °C
26 | c1ccc(CNc2nc3ccccc3s2)cc1 | 159 °C

Row | Structure (SMILES) | melting point
27 | Cc1ccc(P(=O)(C(=O)c2c(C)cc(C)cc2C)C(=O)c2c(C)cc(C)cc2C)cc1 | 151 to 152 °C
28 | CCc1nc2c(N)nc3cc(OCCNC(C)=O)ccc3c2n1CC1CCOCC1 | 165 to 167 °C
29 | Cn1nc(-c2c(F)cccc2Cl)nc1-c1ccc(F)c(-c2ccc(OC(F)(F)F)cc2)c1 | 117 to 119 °C
30 | COc1cc(Nc2nccc(-c3ccsc3)n2)cc(OC)c1OC | 163 °C
31 | Cc1cc(OCc2ccccc2)cc(NC(=O)OC(C)C)c1C(=O)O | 137 to 139 °C
32 | CC1CCC2(C)C(=CCC3C4CC(Br)C(=O)C4(C)CCC32)C1 (stereo unspecified) | 186 to 188 °C
33 | CCOC(=O)C(S)(C#N)C1=NC(C)Cc2cc(OC)c(OC)cc21 (stereo unspecified) | 128 to 130 °C
34 | CCC12CCC(=O)C=C1c1c(cc(OCC(=O)OCC3COC(C)(C)O3)c(Cl)c1Cl)C2 (stereo unspecified) | 143 to 145 °C
35 | Cc1c(-c2ccc(Cl)cc2)nn(C)c1C(F)(F)F | 87 to 88.5 °C
36 | CCOc1ccc(S(=O)(=O)N2CCN(C)CC2)cc1-c1nc2c(COC)nn(C)c2c(=O)[nH]1 | 198 to 199 °C
37 | COc1cc2c(cc1OC)CN(C(=O)Cc1ccc(OC)c([N+](=O)[O-])c1)CC2 | 175 °C
38 | C=CCOCC(O)CN1CCN(c2nc(-c3ccccc3)nc3ccccc23)CC1 (stereo unspecified) | 85 to 87 °C
39 | Cc1ccccc1C(C)Oc1cc(OCc2ccccc2)ccc1C(=O)O (stereo unspecified) | 110 to 113 °C
40 | Cc1noc(C(=O)N2CCCCC2)c1C(=O)O | 128 to 130 °C
41 | CCn1c(=O)c2c(nc(/C=C/c3cccc(OC(C)=O)c3OC(C)=O)n2C)n(CC)c1=O | 228 to 230 °C
42 | CN(C)C(=O)CNc1ccncc1[N+](=O)[O-] | 142 to 143 °C
43 | N#CC1=C(COCc2ccccc2)Nc2n[nH]cc2C1c1ccccc1Cl (stereo unspecified) | 165 to 166 °C
44 | COc1cc2c(cc1Cl)C(O[Si](C)(C)C)(c1ccccc1Cl)C(=O)N2 (stereo unspecified) | 211 to 212 °C
45 | Cc1nc(CCn2cnc3c2c(=O)n(C)c(=O)n3C)no1 | 112 to 114 °C
46 | Cn1nnc(COc2nn3c(-c4ccccc4)nnc3cc2-c2ccccc2)n1 | 228 to 233 °C
47 | Cc1nn(-c2cccc(C(F)(F)F)c2)cc1C(=O)N(CC(=O)O)c1ccc(OCC(C)(C)C)c(C#N)c1 | 110 to 112 °C
48 | CCN(CC)Cc1ccc2[nH]c(-c3ccccc3)cc(=O)c2c1 | 228 to 230 °C
49 | OC1(C(c2ccccc2F)n2cccc2)CCN(Cc2ccccc2)C1 (stereo unspecified) | 87 to 89 °C
50 | O=[N+]([O-])c1cc(OCc2ccccc2)ccc1Cl | 50 to 50.5 °C
51 | CCc1cc(C(=O)c2ccccc2Cl)c(-n2c(C)nnc2CNC(=O)c2[nH]c3ccccc3c2C)s1 | 143 to 147 °C
52 | CS(=O)(=O)N(c1ccc(C(=O)NC2CCN(C3CCCCC3)C2)cc1)S(C)(=O)=O (stereo unspecified) | 176 to 178 °C

Row | Structure (SMILES) | melting point
53 | C(=C\c1nc(COc2ccc(CCCn3cnnn3)cc2)co1)/c1ccccc1 | 147 to 148 °C
54 | CN1C(=O)C(NC(=O)Nc2ccc(Br)cc2)N=C(c2ccccc2)c2ccccc21 (stereo unspecified) | 286 to 287 °C
55 | COc1cc2c(cc1OC)CCC=C2 | 90.5 to 91 °C
56 | COCc1cc2c(N)cccc2cn1 | 105 °C
57 | CCOC(=O)C1Cc2ccc(Cl)cc2NC1=O (stereo unspecified) | 182 to 184 °C
58 | CCOc1cc2c(cc1OC(C)=O)OCS2 | 131 °C
59 | O=C1CSCc2nc(-c3ccccc3)ccc21 | 78 to 81 °C
60 | Cc1c(C)c2c(c(C)c1N)C(c1ccc(C(C)C)cc1)C(C)(C)O2 (stereo unspecified) | 130 to 132 °C
61 | CCCCOc1ccccc1-c1ccc(C(N)=O)c(=O)[nH]1 | 190 to 191 °C
62 | CC(C)OC(C)c1cc2c(=O)n(NS(C)(=O)=O)c(=O)[nH]c2cc1C(F)(F)F (stereo unspecified) | 110 to 115 °C
63 | Nc1c(F)c(N2CCC(CC3(N)CC3)C2)c(F)c2c1c(=O)c(C(=O)O)cn2C1CC1F (stereo unspecified) | 185 to 193 °C
64 | CC(CO)NC1=NS(=O)(=O)c2cnccc2N1 (stereo unspecified) | 213 to 216 °C
65 | Cn1c(=O)[nH]c2nc(C(F)(F)F)n(Cc3ccccc3)c2c1=O | 211 to 213 °C
66 | ONCCc1ccccc1 | 118 to 121 °C
67 | Nc1ccc(-c2ncnn2-c2ccccc2F)cc1 | 139 to 141 °C
68 | CC(=O)C(=[N+]=[N-])C(=O)CCc1ccc(S(N)(=O)=O)cc1 | 110 to 112 °C
69 | CCN1C(=O)C(C)(C)C(=O)N(C)c2cc(CN(CCn3ccc4oc(C)c(C)c4c3=O)Cc3cc(C)nn3C)ccc21 | 148 to 150 °C
70 | O=Cc1c2ccccc2cc2c(C=O)c3ccccc3cc12 | 247 to 250 °C
71 | CC(C)CC(=O)Nc1cccc(-c2ccnc3c(-c4cc(Cl)cc(Cl)c4)cnn23)c1 | 223 to 225 °C
72 | CCOC(=O)c1cc2c(=O)n(C3CCCC3)c3ccccc3n2c1 | 183 to 185 °C
73 | CCOC(=O)c1ncn2c1CN(C)C(=O)c1ncccc1-2 | 252 to 254 °C
74 | Cc1nc(C=Cc2nc3ccccc3c(=O)n2-c2ccccc2Cl)cs1 | 219 to 221 °C
75 | O=C(Nc1ccc(-c2cccc(C(=O)O)c2)cc1)OCC1c2ccccc2-c2ccccc21 | 226 to 228 °C
76 | CCC(Oc1ccc2c(-c3ccc(Cl)cc3)noc2c1)C(=O)O (stereo unspecified) | 144 °C
77 | COc1ccc(-c2cc(C(=O)O)nnc2-c2ccc(OC)cc2)cc1 | 157 to 158 °C
78 | CC12CCC(=O)NC1CCc1cc(-c3cnc4ccccc4c3)ccc12 (single isomer, unassigned; (+)) | 265 to 266 °C

Row | Structure (SMILES) | melting point
79 | Cc1cccc(NC(=O)NCC(=O)N(CC(=O)OC(C)(C)C)c2ccccc2OC(F)(F)F)c1 | 163 °C
80 | CCCCNC(=O)NS(=O)(=O)c1sccc1C | 144 to 146 °C
81 | C#Cc1cc(Cl)cc2c1OC(C(F)(F)F)C(C(=O)O)=C2 (stereo unspecified) | 186 to 189 °C
82 | CCN(C#N)C(=O)C(C)Oc1ccc(Oc2cnc3cc(F)ccc3n2)cc1 (stereo unspecified) | 108 to 111 °C
83 | O=C(Nc1nc2ccccc2s1)c1cn(-c2ccccc2)c2ccccc2c1=O | 295 to 297 °C
84 | COc1ccc(C2=NNC(=O)C(C)C2)cc1 (stereo unspecified) | 203 to 206 °C
85 | O=C(C(=O)c1ccc(C(F)(F)F)cc1)c1ccc(C(F)(F)F)cc1 | 141 to 142 °C
86 | Clc1cccc2c1Oc1ccccc1NC2 | 71 to 73 °C
87 | CC(=O)c1ccc(S)cc1 | 71 °C
88 | CN(C)C(=O)Nc1scc(C(C)(C)C)c1C#N | 140 °C
89 | CC(C)c1nc(-c2ncn3c2C(C)(C)N(C(=O)N2CCCC2)c2cc(F)ccc2-3)no1 | 154 to 156 °C
90 | COCCOc1ccc(CCCN2C(=O)c3ccccc3C2=O)c(Oc2ncc(C(F)(F)F)cc2Cl)c1 | 101 to 103 °C
91 | Cn1nc(N)nc1NCCCOc1cccc(C2OCCO2)c1 | 117 to 118 °C
92 | CC(C)[C@H](NCCC#N)C(=O)O | 245 to 250 °C
93 | COCCNC(=O)C1CCCN1S(=O)(=O)c1ccc(Cl)c(COc2cccc3ccc(C)nc23)c1Cl (stereo unspecified) | 107 °C
94 | CCCc1nc(CO)c(C(=O)O)n1Cc1cc2c(cc1Cl)OCO2 | 240 °C
95 | CCCCNC(=S)N1CCc2[nH]cnc2C1 | 130 °C
96 | COC(=O)c1cc(Cl)c2c(c1OC)CCN2C(C)=O | 107 to 109 °C
97 | CCOC(=O)C(=CNc1coc2cc(OC)ccc2c1=O)C(=O)OCC | 139 to 141 °C
98 | CN1C(=O)CCCc2cc(Nc3ncc(Cl)c(NC4CCCCC4C(N)=O)n3)ccc21 (stereo unspecified) | 251 to 253 °C
99 | COc1cc(OC)c(OC)c(-c2ccc(N(C)CCN(C)c3ccc(-c4cc(OC)cc(OC)c4OC)nc3)cn2)c1 | 171 to 172 °C
100 | Cn1cc(-c2cnccn2)cc(Br)c1=O | 196 to 197 °C
101 | CCCCCCCCCCCCCCCCCCOc1cc(C(=O)O)cc(C(=O)N(CC(=O)O)CC(=O)O)c1 | 108 to 112 °C
